Measured values reported in paper PMC10781691, “Vertical pathway inhibition of receptor tyrosine kinases and BAD with synergistic efficacy in triple negative breast cancer” (NPJ Precision Oncology, 2024).

Experiments:
Recombinant human BAD = molecular target: T1, Recombinant human BAD (Homo sapiens, UniProt Q92934); assay: SPR (BIAcore) with BAD immobilized on sensor chip; type: binding; conditions: analyte 1.25–160 μM
T1 construct: purchased Novoprotein, Suzhou, China
Procedure: (§1) To compare the binding affinity of NCK and NPB towards BAD, we performed surface plasmon resonance (SPR) measurement by immobilizing BAD protein on a sensor chip with NCK or NPB as analyte. Representative reference-subtracted overlaid sensorgrams and the kinetic parameters are specified in Fig. 2d and Supplementary Fig. 6A. […] Additionally, the pharmacological inhibition of BAD phosphorylation by NCK or NPB in TNBC cells was evaluated. […] Furthermore, the comparative potencies of NPB and NCK were evaluated in eight TNBC cell lines using total cell number assay in 2D culture and cell viability in 3D culture (Supplementary Fig. 6C, D).

[1] = test system: BAD phosphorylation at Ser99; assay: Western blot of BAD phosphorylation at Ser99 in TNBC cells; type: cell-based, human; conditions: MDA-MB-231 and BT549 cells; for level of pBADSer99/BAD: 1 μM
[2] = test system: BAD phosphorylation at Ser75 and Ser118; assay: Western blot of BAD phosphorylation at Ser75 and Ser118 in TNBC cells; type: cell-based, human; conditions: MDA-MB-231 and BT549 cells
Procedure: as §1

BT549 cells [3] = assay: Total cell number assay, 2D culture; type: cell-based, human
Procedure: (§2) Fold difference was calculated. Data represent means ± SD (n = 3).

MDA-MB-231 cells [4] = assay: Total cell number assay, 2D culture; type: cell-based, human
Procedure: as §2

MDA-MB-231 cells [5] = assay: Cell cycle analysis by PI flow cytometry; type: cell-based, human; conditions: MDA-MB-231, 5 μM
Description: Fig. 3 NCK enhances apoptosis and impedes cell-cycle progression in TNBC cells. a Hallmark analysis of the differential expressed genes (DEGs). […] NES, normalized enrichment score. FDR, false discovery rate.
Supplementary Figure 9: (A) Representative flow cytometry plots using PI staining for DNA
or NPB using flow cytometry analysis.

USTC-0 PDX = assay: TNBC patient-derived xenograft; type: in vivo, NOD/SCID mice; conditions: for survival of PDX-bearing mice / Median survival: USTC-0; for survival of PDX-bearing mice: single agents vs vehicle, combinations vs OSI-930 or Crizotinib alone; for Median survival: vehicle 25.5
Procedure: (§3) The effect of drug treatments on two patient-derived xenograft (PDX) models of TNBC, USTC-0 and USTC-1 were next examined. The use of the USTC-1 PDX was previously reported.
(§4) In vivo bioluminescent imaging was performed to determine the incidence and metastatic burden of luciferase-labeled 4T1 cells. Mice were injected i.p. with 10 mg/ml of D-luciferin (Gold Biotechnology, MO, USA) and imaged using a PerkinElmer IVIS Spectrum system. PDX were generated as previously described by transplanting fresh fragments orthotopically into 8-week-old female nonobese diabetic (NOD)/severe combined immunodeficient (SCID) mice (Beijing Vital River Laboratory Animal Technology Co., Beijing, China) (P1, passage 1)[40]. The P1 xenografts were then fragmented, digested into single-cell suspension and implanted into mammary fat pad (100 μL PBS containing growth factor reduced 50% Matrigel) of NOD/SCID mice. Once orthotopic xenografts reached an approximate size of 100 mm^3, the mice were randomly divided into three groups (n = 8) for single drug studies and six groups (n = 6) for combination studies and Kaplan-Meier (KM) analyses. […] Animal body weight and xenograft size were measured daily using an electronic balance and a digital caliper, respectively. Xenograft volume (mm^3) was calculated by using the formula: 0.52 × length × [width]^2. Complete response (CR) was achieved if the average xenograft volume for the treatment group was unable to be determined for two or more consecutive measurements. Partial response (PR) was achieved if the average xenograft volume reduced to <50 mm^3 for two or more consecutive measurements. After 3-week drug treatment, all mice were sacrificed by CO2 inhalation. Tumor and vital organs were weighed and isolated for further analysis. IHC analysis of xenograft histology sections and quantitative polymerase chain reaction (qPCR) were performed as previously described. […] For PDX, xenograft growth was monitored daily by measurement of the xenograft volume until mice humane endpoint ( ~ 1000 mm^3).

USTC-1 PDX = assay: TNBC patient-derived xenograft; type: in vivo, NOD/SCID mice; conditions: for Median survival: USTC-1, vehicle 22.5
Procedure: as §3, §4

[6] = test system: MAPK and PI3K/AKT pathways; assay: Western blot of PI3K/AKT and MAPK pathway proteins; type: cell-based, human
Procedure: Next, western blot analyses were performed to determine potential alteration in expression or activity of the target proteins along the MAPK and PI3K/AKT pathways. […] . […] CI analysis method.

TNBC cell lines = assay: 2D total cell number and 3D viability in eight TNBC cell lines; type: cell-based, human
MDA-MB-231 xenografts = assay: Orthotopic xenograft, combination study; type: in vivo; conditions: Balb/c-nude mice, day 22; NCK 20 mg/kg, OSI 50 mg/kg, CRI 50 mg/kg
MDA-MB-231 cells [7] = assay: Foci formation (crystal violet); conditions: MDA-MB-231, 5 μM each
MDA-MB-231 cells [8] = assay: Annexin V-PI apoptosis flow cytometry; conditions: MDA-MB-231, 5 μM
Description: (§5) Representative flow cytometry plots of Annexin-V and propidium iodide (PI) stained apoptotic
(§6) or NPB using flow cytometry analysis. Annexin V-FITC staining is indicated on the x axis, and PI staining is indicated on the y axis. The lower left quadrants represent live cells, the lower right quadrants represent early apoptotic cells, the upper left quadrants represent necrotic cells, and the upper right quadrants display late apoptotic cells. Acquisition of Annexin V and PI data are presented as a percentage (%) in each quadrant. Early apoptotic cells are referred to as Annexin- V positive and late apoptotic cells are referred to as Annexin-V and PI double positive.

BT549 cells [9] = assay: Annexin V-PI apoptosis flow cytometry; conditions: BT549, 5 μM
Description: as §5, §6

MDA-MB-231 cells [10] = assay: Cambridge cancer compound library screen in combination with NCK; type: cell-based, human; conditions: compound at IC25 with NCK 0.1, 1, 10 μM, 72 h, AlamarBlue
Procedure: Cancer compound library screening was performed using IC25 values of anti-cancer compounds (predicted with Genomics of Drug Sensitivity in Cancer (https://www.cancerrxgene.org/) and NCK at 3-point dilutions (0.1, 1, 10 μM) in medium containing 2% FBS to identify potential synergistic combinations. In detail, MDA-MB-231 cells (5 ×10^3) were seeded in 96-well plates in 80 μl of culture medium (2% FBS) and allowed to settle overnight. 24-hour post-seeding, 10 μl of compounds dissolved in culture medium were prepared and added to the plates to reach a final concentration of IC25 of the respective compound. 10 μl of NCK was also added into cell plates to yield a final concentration of 0.1, 1 or 10 μM. After 72-hours of treatment, cell viability was determined with AlamarBlue reagent and fluorescence was measured using a Tecan microplate reader, as previously described[29].

VEGFR2 = conditions: read-out: potency on VEGFR2; cited from earlier work
CSF-1R = test system: CSF-1R; set-up: method as in SelleckChem; conditions: ref SelleckChem; cited from earlier work
c-Kit = conditions: read-out: potency on Kit; cited from earlier work
Flt1 = test system: Flt1; set-up: method as in SelleckChem; conditions: ref SelleckChem; cited from earlier work
c-Raf = test system: c-Raf; set-up: method as in SelleckChem; conditions: ref SelleckChem; cited from earlier work
[11] = Phase I, cited from earlier work

T1 sequence (Q92934 whole entry): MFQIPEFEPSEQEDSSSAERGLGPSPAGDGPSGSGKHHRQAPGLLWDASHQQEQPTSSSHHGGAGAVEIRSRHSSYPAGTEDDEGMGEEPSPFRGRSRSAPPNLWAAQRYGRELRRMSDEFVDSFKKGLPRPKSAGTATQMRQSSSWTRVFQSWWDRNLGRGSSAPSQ

## Oc1ccccc1C(c1cccnc1)N1CCN(c2cccc(Cl)c2Cl)CC1 (stereo not drawn) [NCK, 2-((4-(2,3-dichlorophenyl)piperazin-1-yl)(pyridin-3-yl)methyl) phenol]
Recombinant human BAD; read-out: Affinity (KD)
  Kd: 48.1 nM
Recombinant human BAD; read-out: Association (Ka)
  kon: 111000 M⁻¹ s⁻¹
[1]
  level of pBADSer99/BAD: significantly decreased the level of pBADSer99/BAD
[1]; vs DMSO
  inhibition of BAD phosphorylation at Ser99 (decreased pBADSer99/BAD ratio), effective concentration: ≥ 0.1 μM
[2]
  levels of pBADSer75/BAD and pBADSer118/BAD: did not alter
BT549 cells [3]; BT549, 2D
  fold IC50 difference NCK vs NPB: ~ 2 fold
BT549 cells [3]; Homo sapiens, BT-549, BT549, 2% FBS
  IC50: 1700 nM
MDA-MB-231 cells [4]; Homo sapiens, MDA-MB-231, 2% FBS
  IC50: 1010 nM
MDA-MB-231 cells [4]; MDA-MB-231, 2D
  fold IC50 difference NCK vs NPB: ~ 3 fold
MDA-MB-231 cells [5]
  decrease in S-phase: 15.68%
  increase in G1-phase: 17.75%
USTC-0 PDX; USTC-0, 21 days treatment
  PDX xenograft volume: significantly reduced the xenograft volume
  reduction in xenograft burden vs vehicle: 66.0%
USTC-0 PDX
  survival of PDX-bearing mice: markedly extended the survival
  Median survival: 42.0 days
USTC-1 PDX; USTC-1, 21 days treatment
  PDX xenograft volume: significantly reduced the xenograft volume
  reduction in xenograft burden vs vehicle: 45.6%
USTC-1 PDX
  Median survival: 34.5 days
[6]; BT549, 1 μM
  phosphorylated and total proteins of MAPK and PI3K/AKT pathways: did not affect
[6]; MDA-MB-231, 1 μM
  phosphorylated and total proteins of MAPK and PI3K/AKT pathways: did not affect
TNBC cell lines
  potency vs NPB in reducing 2D and 3D cell viability: more potent than NPB
MDA-MB-231 xenografts
  Colon Length: 9.55±0.84 cm
  Relative Liver Weight: 5.70±0.38%
MDA-MB-231 cells [7]
  2D foci formation: significantly attenuated the capacity for foci formation
MDA-MB-231 cells [8]
  induction of apoptosis (early and late): more potent effect than NPB in inducing apoptosis
BT549 cells [9]
  induction of apoptosis (early and late): more potent effect than NPB in inducing apoptosis

## O=C(Nc1ccc(OC(F)(F)F)cc1)c1sccc1NCc1ccnc2ccccc12 [OSI-930]
[1]
  level of pBADSer99/BAD: significantly decreased the level of pBADSer99/BAD
USTC-0 PDX; USTC-0, 21 days treatment
  PDX xenograft volume: significantly reduced the xenograft volume
USTC-0 PDX
  survival of PDX-bearing mice: markedly extended the survival
  Median survival: 34.0 days
USTC-1 PDX; USTC-1, 21 days treatment
  PDX xenograft volume: significantly reduced the xenograft volume
USTC-1 PDX
  Median survival: 29.5 days
MDA-MB-231 cells [10]
  synergy with NCK in compound library screen (CI, Bliss independence): low CI (high synergy)
[6]; BT549, 1 μM
  phosphorylated and total proteins of MAPK and PI3K/AKT pathways: significantly reduced the level of p-AKT (Ser473)/AKT
[6]; MDA-MB-231, 1 μM
  phosphorylated and total proteins of MAPK and PI3K/AKT pathways: significantly inhibited the PI3K/AKT pathway
MDA-MB-231 xenografts
  Colon Length: 9.34±0.67 cm
VEGFR2
  IC50: 9 nM
CSF-1R
  IC50: 15 nM
c-Kit
  IC50: 80 nM
Flt1
  IC50: 8 nM
c-Raf
  IC50: 41 nM
[11]; ref NCT00513851
  MTD, BID: 500 mg
  MTD, QD: 1600 mg
[11]; ref NCT00603356
  MTD of OSI-930 BID with 150 mg erlotinib QD: 200 mg
MDA-MB-231 cells [7]
  2D foci formation: significantly attenuated the capacity for foci formation
